We go through 3 molecules from patent US20230391788A1 (NAVIN SAXENA RESEARCH & TECHNOLOGY PVT. LTD., priority 2020, published 2023).

For data set [1] the following is noted: after oral dosing; cited from earlier work.
Data set [2] in a line: Storage stability of naltrexone decanoate. Format: physicochemical. To be noted: storage condition of less than 25° C.

Each structure is given as a SMILES string. Where only a bound is given, the exact number is not on record here.

With `Oc1ccc2c3c1O[C@H]1[C@H](O)CC[C@@]4(O)[C@@H](C2)N(CC2CC2)CC[C@]314` [6-β-naltrexol], the “time at which peak plasma levels occur” value in data set [1] is on record as “one”. `CCCCCCCCCC(=O)Oc1ccc2c3c1O[C@H]1C(=O)CC[C@@]4(O)[C@@H](C2)N(CC2CC2)CC[C@]314` [naltrexone decanoate, 17-(cyclopropylmethyl)-4,5-epoxy-14-hydroxy-3-[(1-oxodecyl)oxy]-(5α)-morphinan-6-one]: the “period over which stable” value in data set [2] is not above 60 months. Turning to `O=C1CC[C@@]2(O)[C@H]3Cc4ccc(O)c5c4[C@@]2(CCN3CC2CC2)[C@H]1O5` [naltrexone, Naltrexone, reference compound], the “time at which peak plasma levels occur” value in data set [1] is on record as “one”.
